Measurements: the NIST ThermoML archive (doi:10.1016/j.jct.2014.04.016)
Where “and” joins values, the source holds several entries; their conditions need not be identical. Equal entries are not always repeated. ± gives the expanded uncertainty stated by the source.

Test: xn = mol fraction of the nth substance listed
Conditions: 100 kPa; for electrical conductivity: Alternating current cell with electrodes; for viscosity: Concentric cylinders viscometry; for mass density: Vibrating tube method

Structure (SMILES): CCCCCCCCOS(=O)(=O)[O-].CCn1cc[n+](C)c1 [1-ethyl-3-methylimidazolium octyl sulfate] + O
- electrical conductivity (278.1 K, Glass, x1 = 0.3555): 0.188 ± 0.004 S/m
- viscosity (278.1 K, Glass, x1 = 0.1197): 591.8 ± 63 mPa·s
- viscosity (278.1 K, Glass, x1 = 0.3555): 2561 ± 480 mPa·s and 2061 ± 350 mPa·s
- electrical conductivity (278.1 K, Liquid, x1 = 0.0401): 1.32 S/m and 1.31 S/m
- electrical conductivity (278.1 K, Liquid, x1 = 0.0586): 1.24 S/m
- electrical conductivity (278.1 K, Liquid, x1 = 0.4108): 0.144 ± 0.004 S/m
- electrical conductivity (278.1 K, Liquid, x1 = 0.4688): 0.097 ± 0.003 S/m
- electrical conductivity (278.1 K, Liquid, x1 = 0.5001): 0.089 ± 0.003 S/m
- viscosity (278.1 K, Liquid, x1 = 0.4108): 394.6 ± 37 mPa·s
- mass density (278.1 K, Liquid, x1 = 0.1197): 1079 ± 1 kg/m3
- mass density (278.1 K, Liquid, x1 = 0.1402): 1080.9 ± 1 kg/m3
- mass density (278.1 K, Liquid, x1 = 0.3555): 1099.7 ± 1 kg/m3 and 1099.8 ± 1 kg/m3
- mass density (278.1 K, Liquid, x1 = 0.4108): 1101.5 ± 1 kg/m3
- viscosity (278.6 K, Glass, x1 = 0.3555): 1160 ± 160 mPa·s
- mass density (278.6 K, Liquid, x1 = 0.3555): 1099.4 ± 1 kg/m3
- electrical conductivity (279.1 K, Glass, x1 = 0.3555): 0.198 ± 0.005 S/m
- viscosity (279.1 K, Glass, x1 = 0.3555): 633.2 ± 68 mPa·s
- electrical conductivity (279.1 K, Liquid, x1 = 0.0803): 1.1 ± 0.023 S/m
- electrical conductivity (279.1 K, Liquid, x1 = 0.1197): 0.866 ± 0.019 S/m
- mass density (279.1 K, Liquid, x1 = 0.3555): 1098.8 ± 1 kg/m3
- electrical conductivity (280.1 K, Glass, x1 = 0.1402): 0.788 ± 0.017 S/m
- electrical conductivity (280.1 K, Liquid, x1 = 0.3555): 0.206 S/m and 0.205 S/m
- electrical conductivity (280.1 K, Liquid, x1 = 0.4688): 0.109 ± 0.003 S/m
- viscosity (280.1 K, Liquid, x1 = 0.3555): 307.6 ± 27 mPa·s
- mass density (280.1 K, Liquid, x1 = 0.3555): 1098.3 ± 1 kg/m3
- viscosity (280.6 K, Liquid, x1 = 0.3555): 297.5 ± 25 mPa·s
- mass density (280.6 K, Liquid, x1 = 0.3555): 1097.9 ± 1 kg/m3
- electrical conductivity (281.1 K, Glass, x1 = 0.1402): 0.815 S/m and 0.816 S/m
- electrical conductivity (281.1 K, Glass, x1 = 0.1605): 0.737 ± 0.015 S/m
- electrical conductivity (281.1 K, Liquid, x1 = 0.0803): 1.22 ± 0.026 S/m
- electrical conductivity (281.1 K, Liquid, x1 = 0.1197): 0.927 ± 0.02 S/m
- electrical conductivity (281.1 K, Liquid, x1 = 0.3555): 0.215 S/m and 0.214 S/m
- electrical conductivity (281.1 K, Liquid, x1 = 0.4108): 0.168 ± 0.004 S/m
- viscosity (281.1 K, Liquid, x1 = 0.3555): 287.4 ± 24 mPa·s
- mass density (281.1 K, Liquid, x1 = 0.3555): 1097.6 ± 1 kg/m3
- electrical conductivity (282.1 K, Glass, x1 = 0.1402): 0.848 S/m and 0.847 S/m
- electrical conductivity (282.1 K, Glass, x1 = 0.1605): 0.766 ± 0.016 S/m
- viscosity (282.1 K, Glass, x1 = 0.3076): 12190 ± 4500 mPa·s
- viscosity (282.1 K, Liquid, x1 = 0.3555): 268.8 ± 22 mPa·s
- mass density (282.1 K, Liquid, x1 = 0.3076): 1094.6 ± 1 kg/m3
- mass density (282.1 K, Liquid, x1 = 0.3555): 1096.9 ± 1 kg/m3
- viscosity (282.6 K, Glass, x1 = 0.3076): 7608 ± 2300 mPa·s
- mass density (282.6 K, Liquid, x1 = 0.3076): 1094.3 ± 1 kg/m3
- electrical conductivity (283.1 K, Glass, x1 = 0.1402): 0.873 S/m and 0.874 S/m
- electrical conductivity (283.1 K, Glass, x1 = 0.1605): 0.793 S/m and 0.791 S/m
- electrical conductivity (283.1 K, Glass, x1 = 0.2119): 0.566 S/m and 0.563 S/m
- electrical conductivity (283.1 K, Glass, x1 = 0.2632): 0.393 ± 0.009 S/m
- viscosity (283.1 K, Glass, x1 = 0.1402): 11410 ± 4100 mPa·s
- viscosity (283.1 K, Glass, x1 = 0.3076): 2873 ± 550 mPa·s
- electrical conductivity (283.1 K, Liquid, x1 = 0.0401): 1.48 S/m
- electrical conductivity (283.1 K, Liquid, x1 = 0.0586): 1.46 S/m and 1.45 S/m
- electrical conductivity (283.1 K, Liquid, x1 = 0.0803): 1.29 ± 0.027 S/m
- electrical conductivity (283.1 K, Liquid, x1 = 0.1197): 0.987 ± 0.021 S/m
- electrical conductivity (283.1 K, Liquid, x1 = 0.3555): 0.234 S/m and 0.236 S/m
- electrical conductivity (283.1 K, Liquid, x1 = 0.4108): 0.189 ± 0.004 S/m
- electrical conductivity (283.1 K, Liquid, x1 = 0.4688): 0.128 S/m and 0.124 S/m
- electrical conductivity (283.1 K, Liquid, x1 = 0.5001): 0.117 ± 0.003 S/m
- viscosity (283.1 K, Liquid, x1 = 0.1197): 105.5 ± 7.3 mPa·s
- viscosity (283.1 K, Liquid, x1 = 0.3555): 251.8 ± 20 mPa·s and 251.7 ± 20 mPa·s
- viscosity (283.1 K, Liquid, x1 = 0.4108): 282.2 ± 24 mPa·s
- mass density (283.1 K, Liquid, x1 = 0.1197): 1075.7 ± 1 kg/m3
- mass density (283.1 K, Liquid, x1 = 0.1402): 1078.9 ± 1 kg/m3
- mass density (283.1 K, Liquid, x1 = 0.3076): 1094.1 ± 1 kg/m3
- mass density (283.1 K, Liquid, x1 = 0.3555): 1096.1 ± 1 kg/m3 and 1096.2 ± 1 kg/m3
- mass density (283.1 K, Liquid, x1 = 0.4108): 1098 ± 1 kg/m3
- viscosity (283.6 K, Glass, x1 = 0.3076): 1129 ± 150 mPa·s
- mass density (283.6 K, Liquid, x1 = 0.3076): 1093.8 ± 1 kg/m3
- electrical conductivity (284.1 K, Glass, x1 = 0.1605): 0.819 ± 0.017 S/m
- electrical conductivity (284.1 K, Glass, x1 = 0.2632): 0.409 ± 0.009 S/m
- electrical conductivity (284.1 K, Glass, x1 = 0.3076): 0.335 ± 0.007 S/m
- viscosity (284.1 K, Glass, x1 = 0.3076): 560.6 ± 57 mPa·s
- electrical conductivity (284.1 K, Liquid, x1 = 0.1402): 0.908 S/m and 0.907 S/m
- mass density (284.1 K, Liquid, x1 = 0.3076): 1093.6 ± 1 kg/m3
- electrical conductivity (285.1 K, Glass, x1 = 0.1605): 0.847 S/m and 0.848 S/m
- electrical conductivity (285.1 K, Glass, x1 = 0.2632): 0.431 ± 0.01 S/m
- electrical conductivity (285.1 K, Glass, x1 = 0.3076): 0.349 ± 0.008 S/m
- viscosity (285.1 K, Glass, x1 = 0.1402): 6220 ± 1600 mPa·s
- electrical conductivity (285.1 K, Liquid, x1 = 0.0803): 1.37 ± 0.029 S/m
- electrical conductivity (285.1 K, Liquid, x1 = 0.1197): 1.06 ± 0.023 S/m
- electrical conductivity (285.1 K, Liquid, x1 = 0.1402): 0.934 S/m and 0.936 S/m
- electrical conductivity (285.1 K, Liquid, x1 = 0.3555): 0.258 S/m and 0.257 S/m
- electrical conductivity (285.1 K, Liquid, x1 = 0.4108): 0.209 ± 0.005 S/m
- electrical conductivity (285.1 K, Liquid, x1 = 0.4688): 0.142 ± 0.004 S/m
- viscosity (285.1 K, Liquid, x1 = 0.3076): 191.9 ± 15 mPa·s
- mass density (285.1 K, Liquid, x1 = 0.1402): 1077.9 ± 1 kg/m3
- mass density (285.1 K, Liquid, x1 = 0.3076): 1092.7 ± 1 kg/m3
- viscosity (285.6 K, Liquid, x1 = 0.3076): 186 ± 14 mPa·s
- mass density (285.6 K, Liquid, x1 = 0.3076): 1092.4 ± 1 kg/m3
- electrical conductivity (286.1 K, Glass, x1 = 0.1605): 0.875 S/m and 0.876 S/m
- electrical conductivity (286.1 K, Glass, x1 = 0.2632): 0.449 S/m and 0.445 S/m
- electrical conductivity (286.1 K, Glass, x1 = 0.3076): 0.363 S/m and 0.362 S/m
- viscosity (286.1 K, Glass, x1 = 0.1402): 4375 ± 980 mPa·s
- electrical conductivity (286.1 K, Liquid, x1 = 0.1402): 0.965 S/m and 0.967 S/m
- viscosity (286.1 K, Liquid, x1 = 0.3076): 180.2 ± 14 mPa·s
- mass density (286.1 K, Liquid, x1 = 0.1402): 1077.3 ± 1 kg/m3
- mass density (286.1 K, Liquid, x1 = 0.3076): 1092 ± 1 kg/m3
- electrical conductivity (286.6 K, Glass, x1 = 0.2632): 0.455 ± 0.01 S/m
- viscosity (286.6 K, Liquid, x1 = 0.3076): 174.6 ± 13 mPa·s
- mass density (286.6 K, Liquid, x1 = 0.2632): 1088.8 ± 1 kg/m3
- mass density (286.6 K, Liquid, x1 = 0.3076): 1091.7 ± 1 kg/m3
- electrical conductivity (287.1 K, Glass, x1 = 0.1605): 0.904 ± 0.019 S/m
- electrical conductivity (287.1 K, Glass, x1 = 0.1766): 0.817 ± 0.017 S/m
- electrical conductivity (287.1 K, Glass, x1 = 0.2632): 0.463 ± 0.01 S/m
- viscosity (287.1 K, Glass, x1 = 0.1402): 2587 ± 460 mPa·s
- viscosity (287.1 K, Glass, x1 = 0.2632): 14710 ± 5800 mPa·s
- electrical conductivity (287.1 K, Liquid, x1 = 0.1197): 1.13 ± 0.024 S/m
- electrical conductivity (287.1 K, Liquid, x1 = 0.1402): 0.996 S/m and 0.997 S/m
- electrical conductivity (287.1 K, Liquid, x1 = 0.1605): 0.906 ± 0.019 S/m
